Laboratory results as given in ChEMBL document CHEMBL1201862, “PubChem BioAssay data set” (2004).
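Where inhibition never reached the appropriate level, the endpoint shown equals the highest concentration tested. Otherwise, values were interpolated linearly from a five-concentration, 48-hour dose response in 96-well plates. GI50: concentration for 50% inhibition of growth.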 Calls of active or inactive are those of the source. Rule as the data show it: active = GI50 up to about 1.1 µM and inactive = higher.

How the values were obtained:
Test in all cases: NCI anticancer screen, dose series, 48 h
[1] = test system: CAKI-1
[2] = test system: CCRF-CEM
[3] = test system: COLO 205
[4] = test system: HCC 2998
[5] = test system: HOP-92
[6] = test system: IGROV-1
[7] = test system: KM12
[8] = test system: Malme-3M
[9] = test system: NCI-H226
[10] = test system: NCI-H460
[11] = test system: NCI-H522
[12] = test system: NCI/ADR-RES
[13] = test system: OVCAR-4
[14] = test system: SK-MEL-28
[15] = test system: SK-MEL-5
[16] = test system: SN12C
[17] = test system: SNB-75
[18] = test system: UACC-62
[19] = test system: UO-31
[20] = test system: MDA-MB-435

Compound | GI50 [1] | GI50 [2] | GI50 [3] | GI50 [4] | GI50 [5] | GI50 [6] | GI50 [7] | GI50 [8] | GI50 [9] | GI50 [10] | GI50 [11] | GI50 [12] | GI50 [13] | GI50 [14] | GI50 [15] | GI50 [16] | GI50 [17] | GI50 [18] | GI50 [19] | GI50 [20]
Cc1ccc(N(O)C(C)(C)C)cc1 | > 100 µM (inactive) | > 100 µM (inactive) | > 100 µM (inactive) | > 100 µM (inactive) | > 100 µM (inactive) | > 100 µM (inactive) | > 100 µM (inactive) | > 100 µM (inactive) | > 100 µM (inactive) | > 100 µM (inactive) | > 100 µM (inactive) | > 100 µM (inactive) | > 100 µM (inactive) | > 100 µM (inactive) | > 100 µM (inactive) | > 100 µM (inactive) | > 100 µM (inactive) | > 100 µM (inactive) | > 100 µM (inactive) | 
Cc1ccc(C(=O)C2CC3(CCC2(O)c2ccc(C)cc2)CC(=O)Nc2ccccc2C3=O)cc1 (configuration not stated) | > 100 µM (inactive) | 5.66 µM (inactive) | > 100 µM (inactive) | > 100 µM (inactive) | 19.4 µM (inactive) | > 100 µM (inactive) |  | > 100 µM (inactive) | > 100 µM (inactive) | 40 µM (inactive) |  | > 100 µM (inactive) |  | > 100 µM (inactive) | 6.89 µM (inactive) | > 100 µM (inactive) | 13.5 µM (inactive) | > 100 µM (inactive) | > 100 µM (inactive) | > 100 µM (inactive)
O=[N+]([O-])c1cc2ncc(-c3ccccc3)c(O)c2cc1/C(Cl)=C/c1ccccc1 | 19.1 µM (inactive) | 4.43 µM (inactive) | 7.82 µM (inactive) | 8.26 µM (inactive) | 3.47 µM (inactive) | 5.83 µM (inactive) | 9.12 µM (inactive) |  | 13 µM (inactive) | 9.16 µM (inactive) | 3.48 µM (inactive) | 4.93 µM (inactive) | 3.2 µM (inactive) | 17.2 µM (inactive) | 5.04 µM (inactive) | 14.2 µM (inactive) | 9.1 µM (inactive) | 6.97 µM (inactive) | 9.89 µM (inactive) | 
CC(C)(C)[Si](C)(C)OCCOCn1cc(F)c(=O)[nH]c1=O | > 100 µM (inactive) | > 100 µM (inactive) | > 100 µM (inactive) |  |  | > 100 µM (inactive) | > 100 µM (inactive) | > 100 µM (inactive) | > 100 µM (inactive) | > 100 µM (inactive) | > 100 µM (inactive) | > 100 µM (inactive) | > 100 µM (inactive) |  | > 100 µM (inactive) | > 100 µM (inactive) | > 100 µM (inactive) | > 100 µM (inactive) | > 100 µM (inactive) | > 100 µM (inactive)
NC(=O)NN=C(CS)CS | 23.6 µM (inactive) | 36.9 µM (inactive) | 23.1 µM (inactive) | 31 µM (inactive) | 21.9 µM (inactive) | 39.1 µM (inactive) | 33.2 µM (inactive) | 19.7 µM (inactive) |  | 23.7 µM (inactive) | 22.6 µM (inactive) | 25.6 µM (inactive) | 25.4 µM (inactive) | 30.6 µM (inactive) | 17 µM (inactive) | 24.2 µM (inactive) | 33 µM (inactive) | 25.3 µM (inactive) | 18.8 µM (inactive) | 
O=C(NCCCCCCNC(=O)n1cc(F)c(=O)[nH]c1=O)NCCCOCCOCCCNC(=O)C(O)C(O)C(O)C(O)CO (configuration not stated) |  | > 2.5 µM (inactive) | > 2.5 µM (inactive) | 0.152 µM (active) | > 2.5 µM (inactive) | > 2.5 µM (inactive) | > 2.5 µM (inactive) | > 1.53 µM (inactive) | > 2.5 µM (inactive) | 1.51 µM (inactive) | > 2.5 µM (inactive) | > 2.5 µM (inactive) | > 2.5 µM (inactive) | > 2.5 µM (inactive) | > 2.5 µM (inactive) | > 2.5 µM (inactive) | > 2.5 µM (inactive) | > 2.5 µM (inactive) | > 2.3 µM (inactive) | 
S=C(N/N=C(/c1ccccc1)c1ccccn1)Nc1cccc(Cl)c1 | 0.701 µM (active) | < 0.0258 µM (active) | < 0.0315 µM (active) | 0.748 µM (active) | 1.93 µM (inactive) |  | 0.414 µM (active) | 0.119 µM (active) | 0.508 µM (active) | 0.316 µM (active) |  | 0.0432 µM (active) | 0.0524 µM (active) | 1.01 µM (active) | 0.185 µM (active) | 0.394 µM (active) | 0.0569 µM (active) | 0.201 µM (active) | 0.566 µM (active) | 0.802 µM (active)
Cc1[nH]c(=O)nc(S)c1C(=O)NC1C2CCCCC2NC2CCCCC21 (configuration not stated) | 17.2 µM (inactive) | 14.8 µM (inactive) | 20.5 µM (inactive) | 25 µM (inactive) | 18.5 µM (inactive) | 15.7 µM (inactive) | 16.1 µM (inactive) | 24.1 µM (inactive) | 17.3 µM (inactive) | 14.4 µM (inactive) |  | 17.7 µM (inactive) | 18.3 µM (inactive) | 11.2 µM (inactive) | 18.9 µM (inactive) | 19.8 µM (inactive) | 16.7 µM (inactive) | 4.09 µM (inactive) | 13.8 µM (inactive) | 6.93 µM (inactive)
O=C1CC(=O)N(c2ccccc2)N1/C(=C/c1ccccc1)c1ccccc1 | 17.3 µM (inactive) | 0.336 µM (active) | 19.8 µM (inactive) | 20.1 µM (inactive) | 13.2 µM (inactive) | 15.8 µM (inactive) | 25.6 µM (inactive) |  | 21.9 µM (inactive) | 19.8 µM (inactive) |  | 25.5 µM (inactive) | 20.5 µM (inactive) | 12.3 µM (inactive) | 14.5 µM (inactive) | 20.5 µM (inactive) | 22 µM (inactive) | 16.3 µM (inactive) | 15.7 µM (inactive) | 18.9 µM (inactive)
CN1C(=O)[C@@H]2[C@@H]3c4ccccc4N[C@@H]3c3[nH]c4ccccc4c3[C@@H]2C1=O | 33.2 µM (inactive) | 17.3 µM (inactive) | 17 µM (inactive) | 18.2 µM (inactive) | 20 µM (inactive) | 0.0502 µM (active) |  |  | 60.8 µM (inactive) | 15.3 µM (inactive) |  | 22.8 µM (inactive) | 16.9 µM (inactive) | 24.5 µM (inactive) | 12.5 µM (inactive) | 29.5 µM (inactive) | 31.6 µM (inactive) | 14.5 µM (inactive) | 14.7 µM (inactive) | 23.3 µM (inactive)
CCSc1nc(N)c2c(-c3ccccc3)c3c(nc2n1)CCC3 | > 100 µM (inactive) | > 100 µM (inactive) | > 100 µM (inactive) |  |  | > 100 µM (inactive) | > 100 µM (inactive) | > 100 µM (inactive) |  | > 100 µM (inactive) |  | > 100 µM (inactive) | > 100 µM (inactive) | > 100 µM (inactive) | > 100 µM (inactive) | > 100 µM (inactive) | > 100 µM (inactive) | > 100 µM (inactive) | 2.59 µM (inactive) | > 100 µM (inactive)
CC(=O)NC(Cc1ccsc1)C(=O)O (configuration not stated) | > 100 µM (inactive) | > 100 µM (inactive) | > 100 µM (inactive) | > 100 µM (inactive) | > 100 µM (inactive) | > 100 µM (inactive) | > 100 µM (inactive) | > 100 µM (inactive) | > 100 µM (inactive) | > 100 µM (inactive) | > 100 µM (inactive) | > 100 µM (inactive) | > 100 µM (inactive) | > 100 µM (inactive) | > 100 µM (inactive) | > 100 µM (inactive) | > 100 µM (inactive) | > 100 µM (inactive) | > 100 µM (inactive) | 
O=C(N/N=C\C(F)(F)F)c1ccncc1 | 42.8 µM (inactive) | 3.48 µM (inactive) | 6.14 µM (inactive) | 18.5 µM (inactive) | > 100 µM (inactive) | 35.2 µM (inactive) | 8.09 µM (inactive) | > 100 µM (inactive) | 62.2 µM (inactive) | 19.9 µM (inactive) |  | > 100 µM (inactive) | > 100 µM (inactive) | 80.7 µM (inactive) | 20.5 µM (inactive) | 92.3 µM (inactive) | 32.2 µM (inactive) | 37.2 µM (inactive) | 83.6 µM (inactive) | 9.59 µM (inactive)
Cc1cccc(C)c1NC(=S)N/C=C(\C#N)C(N)=O | > 100 µM (inactive) | > 100 µM (inactive) | > 100 µM (inactive) |  | > 100 µM (inactive) | > 100 µM (inactive) | > 100 µM (inactive) | > 100 µM (inactive) | > 100 µM (inactive) | > 100 µM (inactive) | > 100 µM (inactive) | > 100 µM (inactive) | > 100 µM (inactive) | > 100 µM (inactive) | > 100 µM (inactive) | > 100 µM (inactive) |  | > 100 µM (inactive) | > 100 µM (inactive) | > 100 µM (inactive)
N/N=C1/C2CN3CCN(C2)CC1(c1ccc([N+](=O)[O-])cc1)C3 | > 100 µM (inactive) |  | > 100 µM (inactive) |  |  | > 100 µM (inactive) | > 100 µM (inactive) | > 100 µM (inactive) | > 100 µM (inactive) |  | > 100 µM (inactive) | > 100 µM (inactive) | > 100 µM (inactive) | > 100 µM (inactive) | > 100 µM (inactive) | > 100 µM (inactive) | > 100 µM (inactive) | > 100 µM (inactive) | > 100 µM (inactive) | > 100 µM (inactive)
